Measured values taken from US5321032A, “Peptide compounds and pharmaceutical compositions thereof” (priority 1990, dated 1994).

Molecular target: T1, substance P receptor (Cavia porcellus, UniProt P30547)
T1 construct: The trachea and lung were removed and homogenized in buffer; from tissue; host or cells: guinea pig trachea and lung, crude membrane fraction
Assay: 3H-Substance P binding to guinea pig crude lung membrane preparation
Conditions: test compound 1 μg/ml; 3H-substance P 1 nM; crude lung membrane fractions, 4° C., 30 minutes
Protocol: 1. Binding with ^3 H-P substance receptor
(a) Crude lung membrane preparation
Male Hartly strain guinea pigs were sacrificed by decapitation, The trachea and lung were removed and homogenized in buffer (0.25M sucrose, 50 mM Tris-HCl pH 7.5, 0.1 mM MEDTA) by using Polytoron (Kinematica). The homogenate was centrifuged (1000 x g, 10 min) to remove tissue clumps and the supernatant was centrifuges (14000 x g, 20 min) to yield pellets. The pellets were resuspended in buffer (5 mM Tris-HC1 pH 7.5), homofenized with a teflon homogenizer and centrifuged (14000 x g, 20 min) to yield pellets which were referred to crude membrane fractions. The obtained pallets were stored at -70 ° C. until use.
(b) ^3 H-Substance P binding to preparation membrane
Frozen crude membrane fractions were thawed and resuspended in Medium 1 (50 mM Tris-HC1 pH 7.5, 5 mM MnCl2, 0.02% BSA, 2 μg/ml chymostatin, 4 μg/ml leupeptin, 40 μg/ml bacitaracin). ^3 H-substance P (1 nM ) was incubated with 100 μl of the membrane preparation in Medium 1 at 4° C. for 30 minutes in a final volume of 500 μl. At the end of the incubation over a Whatman GF/B glass filter (pretreated with 0.1% polyethylene imine for 3 hours prior to use) under aspiration. The filters werre then washed four times with 5 ml of the buffer (50 mM Tris-HCl, pH 7.5). The radioactivity was counted in 5 ml of Aquazol-2 in Packerd scintillation counter (Packerd TRI-CARB 4530).

T1 sequence (P30547 whole entry): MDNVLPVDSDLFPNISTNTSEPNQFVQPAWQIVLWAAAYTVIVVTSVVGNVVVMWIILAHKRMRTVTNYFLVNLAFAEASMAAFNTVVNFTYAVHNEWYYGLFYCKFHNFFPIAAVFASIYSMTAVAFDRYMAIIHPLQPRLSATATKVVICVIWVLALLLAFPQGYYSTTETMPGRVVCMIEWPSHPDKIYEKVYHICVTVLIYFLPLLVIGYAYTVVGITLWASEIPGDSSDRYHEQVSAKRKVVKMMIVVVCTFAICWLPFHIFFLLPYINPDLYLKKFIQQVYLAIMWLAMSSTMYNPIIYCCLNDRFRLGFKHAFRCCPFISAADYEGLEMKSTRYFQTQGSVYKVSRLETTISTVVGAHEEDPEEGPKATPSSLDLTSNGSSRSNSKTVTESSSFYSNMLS

Compound | suppression rate (%)
CC(=O)N[C@H](C(=O)N[C@H](Cc1cn(C=O)c2ccccc12)C(=O)N1Cc2ccccc2C[C@@H]1C(=O)N(C)Cc1ccccc1)[C@@H](C)O [(b)] | 99%
CC(=O)N[C@H](C(=O)N[C@H](Cc1cn(C=O)c2ccccc12)C(=O)N[C@@H](Cc1cccs1)C(=O)N(C)Cc1ccccc1)[C@@H](C)O [(a)] | 100%
CC(=O)N[C@H](C(=O)N[C@H](Cc1cn(C=O)c2ccccc12)C(=O)N(C)[C@@H](Cc1ccccc1)C(=O)N(C)Cc1ccccc1)[C@@H](C)O [(c)] | 96%
